Reference: patent US7544438B2, “Electron mediator, electron mediator immobilized electrode, and biofuel cell using the electrode” (Daiichi Pure Chemicals Co., Ltd, priority 2003, dated 2009)

Test system: not listed separately
Experiment: Cyclic voltammetry (CV), redox potential of mediator molecule
Type: physicochemical
Settings: 0.09 mM mediator in Tris buffer solution (pH 8.5); glassy carbon electrode; Ag|AgCl (saturated KCl) reference; 5 mV/s
From the text: [Cyclic Voltammetry (CV), Redox Potential of Mediator Molecule]
The obtained voltammogram represents the potential on an abscissa axis and the current on an ordinate axis. The CV involves relatively easy experiments and sharply reflects not only equilibrium parameters such as the redox potential or diffusion information but also kinetic parameters of an electrode reaction or of a chemical reaction in solution. Thus, the CV is a method of electrochemical measurement allowing an intuitive grasp of the electrode reaction.
The CV for mediator evaluation involves measuring in an electrolytic solution consisting of the buffer with various mediators, diaphorase, and NADH added.
A potentiostat mode of Hokuto Denko HZ-3000 was used. A glassy carbon electrode (GDE, electrode area of about 0.083 cm^2) was used as a working electrode. The GDE was polished with an aluminum powder of 0.05 μm and subjected to ultrasonic cleaning in deionized water before every measurement. A three electrode cell was used, and a Pt electrode and an Ag|AgCl (saturated KCl) electrode were used as a counter electrode and a reference electrode, respectively for the measurement. A potential was changed at a rate of 5 mV/s. A measurement sample was subjected to sufficient bubbling with N2 gas before the measurement to remove dissolved oxygen, and the N2 gas overflowed during the measurement. All measurements began from an open circuit potential.
Cyclic voltammograms with (a) in FIGS. 5A to 5F are measurement of 0.09 mM solutions of the various mediators prepared using a Tris buffer solution (pH 8.5).

Q: Which “redox formal potentials (E^0M′) approximated at middle points of oxidation peaks and reduction peaks” value does the source give for CC1=C(CCCC(=O)NCCN)C(=O)c2ccccc2C1=O [AEACPVK3, 2-{3-[N-(2-aminoethyl)aminocarbonyl]propyl}-3-methyl-1,4-naphthoquinone] here?
A: −0.32 V

Q: Which “redox formal potentials (E^0M′) approximated at middle points of oxidation peaks and reduction peaks” value does the source give for CC1=C(CCCN)C(=O)c2ccccc2C1=O [APVK3, 2-(3-aminopropyl)-3-methyl-1,4-naphthoquinone] here?
A: −0.32 V

Q: For O=C1c2ccccc2C(=O)c2cc(S(=O)(=O)[O-])ccc21.[Na+] [AQS, sodium anthraquinone-2-sulfonate], which “redox formal potentials (E^0M′) approximated at middle points of oxidation peaks and reduction peaks” value is on record?
A: −0.49 V

Q: Which “redox formal potentials (E^0M′) approximated at middle points of oxidation peaks and reduction peaks” value does the source give for CC1=C(CCCC(=O)O)C(=O)c2ccccc2C1=O [CPVK3, 2-(3-carboxypropyl)-3-methyl-1,4-naphthoquinone] here?
A: −0.32 V

Q: With OC[c-]1cccc1.[Fe+2].c1cc[cH-]c1 [FMA, ferrocene methanol] as the compound, how does the “redox formal potentials (E^0M′) approximated at middle points of oxidation peaks and reduction peaks” value read?
A: 0.23 V

Q: With CC1=CC(=O)c2ccccc2C1=O [VK3, 2-methyl-1,4-naphthoquinone] as the compound, how does the “redox formal potentials (E^0M′) approximated at middle points of oxidation peaks and reduction peaks” value read?
A: −0.28 V

Test system: Dp (DIAPHORASE I, [EC 1.6.99.-])
Experiment: Reaction kinetic analysis between diaphorase (Dp) and mediator by CV
Type: biochemical, Bacillus stearothermophilus
Settings: comparison of FMA with AQS, FIG. 6
From the text: A technique of reaction kinetic analysis between an enzyme and a mediator molecule using CV will be described referring to a document (Kazuyoshi Takagi, Kenji Kano, Tokuji Ikeda, J. Electroanal. Chem., 1988, 445, 211-219). Dp catalyses an oxidation reaction of NADH in the presence of an appropriate mediator (Mox) as represented by the following equation (4).
An NADH oxidation rate (νE, ox) may be represented by the following equation (5) on an assumption that an enzyme reaction follows a ping-pong mechanism.
In addition, vE, ox of equation (5) can be approximated as the following equation (6) when Mox concentration is negligibly small ([Mox]<<KM, ox) in the vicinity of the electrode surface.
From the above, kcat, ox/KM, ox clearly represents a reaction rate constant between DPred and Mox. Further, steady state limiting current of catalyst (Is, ox) observed at a more positive potential from the redox potential of the mediator molecule can be represented by the following equation (7).
The reaction rate constant kcat, ox/KM, ox can be estimated from the measured limiting current value using the above equation (7).
On the other hand, cyclic voltammograms with (b) in FIGS. 5A to 5F are measurement results of the above mediator solutions with 0.11 μM of Dp ([…], [EC 1.6.99.-], from Bacillus stearothermophilus, available from Unitika Ltd.) and 4.8 mM of NADH added. […]

Q: With OC[c-]1cccc1.[Fe+2].c1cc[cH-]c1 [FMA, ferrocene methanol] as the compound, how does the “reaction rate constant larger than that of the AQS by” value read?
A: ≥ 1 digit
